Test results taken from patent US9162991B2 (University of Ottawa, priority 2007, dated 2015).
Entries after “also recorded” stand apart in the source; their conditions may differ. Read-outs that look alike come from different tables or passages of the source.

Target: recombinant guinea pig liver TGase (Cavia cutleri (Guinea pig), UniProt P08587)
Assay: biochemical
Format: biochemical
Protocol: ENZYME INHIBITION BY COMPOUNDS 14a-c, 14l, 15a, 15d-k, 15m-q, 30a, 30r, 30t, 37a and 38a: For enzymology studies of these compounds, recombinant guinea pig liver TGase was expressed in Escherichia coli and effectively purified (Gillet, S. M. F. G. et al J. N., Prot. Exp. & Purif. 2004, 33, 256).
The mode of inhibition was determined for the representative lead compound 14a through non-linear regression of initial rate data to the Michaelis-Menten equation (FIG. 1).
For the ensuing enzymatic tests, recombinant guinea pig liver TGase was expressed in E. Coli and effectively purified.
Kinetic runs were recorded on a Cary 100 BIO UV-Visible spectrophotometer at 405 nm and 25° C., in a buffer composed of 50 mM CaCl2, 50 μM EDTA and 0.1 M MOPS (pH 7.0). All aqueous solutions were prepared using de-ionized water purified from the Millipore BioCell system. […] Factor XIIIa activity was measured using a coupled-enzyme assay (Day, N.; Keillor, J. W. Anal. Biochem. 1999, 274, 141). Factor XIIIa, was added to a final concentration of 0.89 μg/mL to a pH 8.5 solution (0.1 M Tris-HCl, 5 mM CaCl2 and 10 mM DDT) of 0.5 mM β-NADH, 3.3 mM Na-acetyl-L-lysine methyl ester, 10 mM α-ketoglutaric acid sodium salt and 297 μg/mL glutamate dehydrogenase (GDH).

[1] = IC50 (μM), Table 6, value in brackets
[2] = IC50 (μM), class symbol, Table 6, Huisgen [3+2] cycloaddition products
[3] = Table 1, substituent on the cinnamoyl aromatic group, read-out: IC50 (μM), class symbol
[4] = Table 1, value in brackets, read-out: IC50

Chain of recombinant guinea pig liver TGase (P08587 whole entry): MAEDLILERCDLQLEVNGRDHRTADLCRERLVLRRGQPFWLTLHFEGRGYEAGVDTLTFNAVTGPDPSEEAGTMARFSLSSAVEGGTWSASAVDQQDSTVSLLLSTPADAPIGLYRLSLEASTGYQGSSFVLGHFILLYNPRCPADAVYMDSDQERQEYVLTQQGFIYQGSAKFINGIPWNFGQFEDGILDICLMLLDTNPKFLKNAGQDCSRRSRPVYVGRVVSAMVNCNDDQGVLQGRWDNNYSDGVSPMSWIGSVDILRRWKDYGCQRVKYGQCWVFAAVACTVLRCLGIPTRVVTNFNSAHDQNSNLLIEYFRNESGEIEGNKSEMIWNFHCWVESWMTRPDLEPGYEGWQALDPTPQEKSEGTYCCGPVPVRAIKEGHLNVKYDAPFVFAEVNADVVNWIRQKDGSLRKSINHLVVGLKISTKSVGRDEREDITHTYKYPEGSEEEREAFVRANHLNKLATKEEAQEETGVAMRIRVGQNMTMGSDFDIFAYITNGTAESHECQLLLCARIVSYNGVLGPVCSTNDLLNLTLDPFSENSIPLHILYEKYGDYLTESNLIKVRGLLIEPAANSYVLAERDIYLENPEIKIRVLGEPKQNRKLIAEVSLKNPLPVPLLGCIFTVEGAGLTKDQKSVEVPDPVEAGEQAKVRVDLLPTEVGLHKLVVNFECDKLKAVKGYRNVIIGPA

Question: How did the IC50 turn out when O=C(/C=C/c1ccc([N+](=O)[O-])cc1)c1cn(Cc2ccccc2)nn1 [Compound 4a, (E)-1-(1-benzyl-1H-1,2,3-triazol-4-yl)-3-(4-nitrophenyl)prop-2-en-1-one] was run?
Answer: Its IC50 is < 20 µM.

Question: What about the IC50 (read-out: IC50) of the same compound?
Answer: The IC50 was 4.3 µM.

Question: For CCCCCCCCn1cc(C(=O)/C=C/c2ccc([N+](=O)[O-])cc2)nn1 [Compound 4b, (E)-3-(4-nitrophenyl)-1-(1-octyl-1H-1,2,3-triazol-4-yl)prop-2-en-1-one], which IC50 is on record?
Answer: The IC50 was 20 to 50 µM.

Question: What about the IC50 (read-out: IC50) of the same compound?
Answer: Its IC50 is 28.5 µM.

Question: With O=C(/C=C/c1ccc([N+](=O)[O-])cc1)c1cn(C2CCCC2)nn1 [Compound 4c, (E)-1-(1-cyclopentyl-1H-1,2,3-triazol-4-yl)-3-(4-nitrophenyl)prop-2-en-1-one] as the compound, how does the IC50 read?
Answer: Its IC50 is > 50 µM.

Question: What about the “TGase inhibitory activity (in words)” value of the same compound?
Answer: Its value is “relatively poor activity”.

Question: What about the IC50 (read-out: IC50) of the same compound?
Answer: Its IC50 is > 100 µM.

Question: Which results are given for O=C(/C=C/c1ccc([N+](=O)[O-])cc1)c1cn(Cc2ccc([N+](=O)[O-])cc2)nn1 [Compound 4d, (E)-1-(1-(4-nitrobenzyl)-1H-1,2,3-triazol-4-yl)-3-(4-nitrophenyl)prop-2-en-1-one]?
Answer: IC50: < 20 µM; TGase inhibitory activity (in words): most efficient inhibitors in the series; mode of inhibition: competitive inhibition; IC50 (read-out: IC50): 2.1 µM

Question: Which IC50 does the source give for O=C(/C=C/c1ccc([N+](=O)[O-])cc1)c1cn(Cc2ccccn2)nn1 [Compound 4e, (E)-3-(4-nitrophenyl)-1-(1-((pyridin-2-yl)methyl)-1H-1,2,3-triazol-4-yl)prop-2-en-1-one] here?
Answer: The IC50 was < 20 µM.

Question: And the “TGase inhibitory activity (in words)” value?
Answer: The value was “lower potency”.

Question: What about the IC50 (read-out: IC50) of the same compound?
Answer: The IC50 was 18 µM.

Question: Which results are given for O=C(/C=C/c1ccc([N+](=O)[O-])cc1)c1cn(CC2CCCCC2)nn1 [Compound 4f, (E)-1-(1-(cyclohexylmethyl)-1H-1,2,3-triazol-4-yl)-3-(4-nitrophenyl)prop-2-en-1-one]?
Answer: IC50: < 20 µM; loss in potency (fold): 2.5 fold; IC50 (read-out: IC50): 11 µM

Question: How did the “reduction in potency (fold)” value turn out when O=C(/C=C/c1ccc([N+](=O)[O-])cc1)c1cn(Cc2cccc([N+](=O)[O-])c2)nn1 [Compound 4g, (E)-1-(1-(3-nitrobenzyl)-1H-1,2,3-triazol-4-yl)-3-(4-nitrophenyl)prop-2-en-1-one] was run?
Answer: The value was 4-7 fold.

Question: What about the IC50 [1] of the same compound?
Answer: The IC50 was 9.4 µM.

Question: What about the IC50 [2] of the same compound?
Answer: Its IC50 is < 20 µM.

Question: What does the source list for O=C(/C=C/c1ccc([N+](=O)[O-])cc1)c1cn(Cc2ccccc2[N+](=O)[O-])nn1 [Compound 4h, (E)-1-(1-(2-nitrobenzyl)-1H-1,2,3-triazol-4-yl)-3-(4-nitrophenyl)prop-2-en-1-one]?
Answer: reduction in potency (fold): 4-7 fold; IC50 [1]: 10.7 µM; IC50 [2]: < 20 µM

Question: O=C(/C=C/c1ccc([N+](=O)[O-])cc1)c1cn(Cc2c(F)c(F)c(F)c(F)c2F)nn1 [Compound 4i] was tested. Which IC50 did it give?
Answer: The IC50 was > 50 µM.

Question: O=C(/C=C/c1ccc([N+](=O)[O-])cc1)c1cn(Cc2cc(C(F)(F)F)cc(C(F)(F)F)c2)nn1 [Compound 4j, (E)-1-(1-(3,5-bis(trifluoromethyl)benzyl)-1H-1,2,3-triazol-4-yl)-3-(4-nitrophenyl)prop-2-en-1-one] was tested. Which “TGase inhibitory activity (in words)” value did it give?
Answer: Its value is “activity was lost”.

Question: And the IC50 (Table 6, Huisgen [3+2] cycloaddition products, read-out: IC50 (μM), class symbol)?
Answer: Its IC50 is > 50 µM.

Question: What about the IC50 (Table 6, value in brackets, read-out: IC50) of the same compound?
Answer: Its IC50 is > 100 µM.

Question: How did the IC50 turn out when CC(c1ccccc1)n1cc(C(=O)/C=C/c2ccc([N+](=O)[O-])cc2)nn1 (centres unmarked) [Compound 4k, (E)-3-(4-nitrophenyl)-1-(1-(1-phenylethyl)-1H-1,2,3-triazol-4-yl)prop-2-en-1-one] was run?
Answer: The IC50 was < 20 µM.

Question: And the “loss in potency (fold)” value?
Answer: Its value is 4 fold.

Question: And the IC50 (read-out: IC50)?
Answer: Its IC50 is 17 µM.

Question: With O=C(/C=C/c1ccc([N+](=O)[O-])cc1)c1cn(C(c2ccccc2)c2ccccc2)nn1 [Compound 4l, (E)-1-(1-benzhydryl-1H-1,2,3-triazol-4-yl)-3-(4-nitrophenyl)prop-2-en-1-one] as the compound, how does the IC50 read?
Answer: The IC50 was > 50 µM.

Question: What about the “TGase inhibitory activity (in words)” value of the same compound?
Answer: Its value is “relatively poor activity”.

Question: And the IC50 (read-out: IC50)?
Answer: Its IC50 is > 100 µM.

Question: What does the source list for O=C(/C=C/c1ccc([N+](=O)[O-])cc1)c1cn(Cc2cnn[nH]2)nn1 [Compound 4m, (E)-1-(1-((3H-1,2,3-triazol-4-yl)methyl)-1H-1,2,3-triazol-4-yl)-3-(4-nitrophenyl)prop-2-en-1-one]?
Answer: IC50: 20 to 50 µM; TGase inhibitory activity (in words): relatively higher IC50 value; also recorded: high IC50; IC50 (read-out: IC50): 33 µM

Question: With COc1ccc(Cn2cc(C(=O)/C=C/c3ccc([N+](=O)[O-])cc3)nn2)cc1 [Compound 4n, (E)-1-(1-(4-methoxybenzyl)-1H-1,2,3-triazol-4-yl)-3-(4-nitrophenyl)prop-2-en-1-one] as the compound, how does the IC50 read?
Answer: Its IC50 is < 20 µM.

Question: What about the IC50 (read-out: IC50) of the same compound?
Answer: Its IC50 is 14 µM.

Question: Which IC50 does the source give for O=C(/C=C/c1ccc([N+](=O)[O-])cc1)c1c[nH]nn1 [Compound 4o, (E)-3-(4-nitrophenyl)-1-(1H-1,2,3-triazol-4-yl)prop-2-en-1-one] here?
Answer: The IC50 was 20 to 50 µM.

Question: What about the “TGase inhibitory activity (in words)” value of the same compound?
Answer: The value was “relatively high IC50”.

Question: And the IC50 (read-out: IC50)?
Answer: Its IC50 is 45 µM.

Question: For O=C(C=Cc1ccc([N+](=O)[O-])cc1)On1nnc2ccccc21 [Compound 14a, p-Nitrocinnamoyl oxybenzotriazolyl amide], which “TGase inhibitory activity (in words)” value is on record?
Answer: The value was “Inhibitory activity was observed”.

Question: What about the IC50 [3] of the same compound?
Answer: Its IC50 is 20 to 50 µM.

Question: What about the IC50 [4] of the same compound?
Answer: Its IC50 is 43 µM.

Question: And the IC50 (Table 3, influence of the acylated moiety, read-out: IC50 (μM), class symbol)?
Answer: The IC50 was 20 to 50 µM.

Question: What about the mode of inhibition (versus acyl-donor substrate) of the same compound?
Answer: Its mode of inhibition is “competitive inhibition; also recorded: competitive inhibitor”.

Question: Which results are given for O=C(C=Cc1cccc([N+](=O)[O-])c1)On1nnc2ccccc21 [Compound 14b, m-Nitrocinnamoyl oxybenzotriazolyl amide]?
Answer: IC50 [3]: 20 to 50 µM; IC50 [4]: 24 µM

Question: O=C(C=Cc1ccccc1[N+](=O)[O-])On1nnc2ccccc21 [Compound 14c, o-Nitrocinnamoyl oxybenzotriazolyl amide] was tested. Which IC50 [3] did it give?
Answer: Its IC50 is > 50 µM.

Question: What about the IC50 [4] of the same compound?
Answer: The IC50 was > 100 µM.

Question: With O=C(C=Cc1cccc(Cl)c1)On1nnc2ccccc21 [Compound 14l, m-Chlorocinnamoyl oxybenzotriazolyl amide] as the compound, how does the IC50 [3] read?
Answer: Its IC50 is 20 to 50 µM.

Question: And the IC50 [4]?
Answer: The IC50 was 41 µM.

Question: And the IC50 (read-out: IC50)?
Answer: Its IC50 is 41 µM.

Question: Which results are given for COc1ccc(/C=C/C(=O)n2nnc3ccccc32)cc1 [Compound 15d, p-Methoxycinnamoyl benzotriazolyl amide]?
Answer: IC50 [3]: > 50 µM; IC50 [4]: > 100 µM

Question: Which IC50 [3] does the source give for COc1cccc(/C=C/C(=O)n2nnc3ccccc32)c1 [Compound 15e, m-Methoxycinnamoyl benzotriazolyl amide] here?
Answer: The IC50 was > 50 µM.

Question: And the IC50 [4]?
Answer: Its IC50 is > 100 µM.

Question: For COc1ccccc1/C=C/C(=O)n1nnc2ccccc21 [Compound 15f, o-Methoxycinnamoyl benzotriazolyl amide], which IC50 [3] is on record?
Answer: The IC50 was > 50 µM.

Question: What about the IC50 [4] of the same compound?
Answer: The IC50 was > 100 µM.

Question: For Cc1ccc(/C=C/C(=O)n2nnc3ccccc32)cc1 [Compound 15g, p-Methylcinnamoyl benzotriazolyl amide], which IC50 [3] is on record?
Answer: Its IC50 is > 50 µM.

Question: What about the IC50 [4] of the same compound?
Answer: The IC50 was > 100 µM.

Question: How did the IC50 [3] turn out when Cc1cccc(/C=C/C(=O)n2nnc3ccccc32)c1 [Compound 15h, m-Methylcinnamoyl benzotriazolyl amide] was run?
Answer: The IC50 was > 50 µM.

Question: And the IC50 [4]?
Answer: The IC50 was > 100 µM.

Question: For Cc1ccccc1/C=C/C(=O)n1nnc2ccccc21 [Compound 15i, o-Methylcinnamoyl benzotriazolyl amide], which IC50 [3] is on record?
Answer: The IC50 was > 50 µM.

Question: And the IC50 [4]?
Answer: Its IC50 is > 100 µM.

Question: Which results are given for O=C(/C=C/c1ccccc1)n1nnc2ccccc21 [Compound 15j, Cinnamoyl benzotriazolyl amide]?
Answer: IC50 [3]: > 50 µM; IC50 [4]: > 100 µM

Question: With O=C(/C=C/c1ccc(Cl)cc1)n1nnc2ccccc21 [Compound 15k, p-Chlorocinnamoyl benzotriazolyl amide] as the compound, how does the IC50 [3] read?
Answer: The IC50 was > 50 µM.

Question: And the IC50 [4]?
Answer: Its IC50 is > 100 µM.

Question: O=C(/C=C/c1ccccc1Cl)n1nnc2ccccc21 [Compound 15m, o-Chlorocinnamoyl benzotriazolyl amide] was tested. Which IC50 [3] did it give?
Answer: The IC50 was > 50 µM.

Question: And the IC50 [4]?
Answer: The IC50 was > 100 µM.
